Laboratory results taken from patent publication US8471005B2 (Cephalon, Inc., priority 2008, dated 2013).
Like-named read-outs stand apart in the source and are kept apart here.

How the values were obtained:
ALK = molecular target: T1, ALK (Homo sapiens, UniProt Q9UM73); test: ALK Kinase Assay (ELISA/TRF, PLC-γ substrate); format: biochemical; conditions: read-out: ALK Potency
T1 construct: host or cells: baculovirus expression system
In short: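 Time-resolved fluorescence ELISA using Eu-N1 PT66 antibody to detect phosphorylated PLC-γ (coated at 10 μg/mL). Enzyme at 30 ng/ml ALK; 15 min incubation, 37° C.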

JAK2 = molecular target: T2, JAK2 (Homo sapiens, UniProt O60674); test: Recombinant Human JAK2 Kinase Assay (TRF); format: biochemical; conditions: read-out: JAK2 Potency
T2 construct: host or cells: baculovirus expression system
In short: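 TRF read-out: Eu-N1 PY100 anti-phosphotyrosine antibody detects product. Enzyme is baculovirus-expressed JAK2 at 15 ng/ml; substrate is a biotinyl 15-mer peptide bound to Neutravidin-coated wells. Buffer 20 mM HEPES pH 7.2, 0.2 μM ATP, 1 mM MnCl2, 0.1% BSA, 2.5% DMSO final; 20 min, RT.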

[1] = ALK kinase inhibition, 1 μM ATP
[2] = JAK2 kinase inhibition, 0.2 μM ATP

T1 sequence (Q9UM73 19-1620): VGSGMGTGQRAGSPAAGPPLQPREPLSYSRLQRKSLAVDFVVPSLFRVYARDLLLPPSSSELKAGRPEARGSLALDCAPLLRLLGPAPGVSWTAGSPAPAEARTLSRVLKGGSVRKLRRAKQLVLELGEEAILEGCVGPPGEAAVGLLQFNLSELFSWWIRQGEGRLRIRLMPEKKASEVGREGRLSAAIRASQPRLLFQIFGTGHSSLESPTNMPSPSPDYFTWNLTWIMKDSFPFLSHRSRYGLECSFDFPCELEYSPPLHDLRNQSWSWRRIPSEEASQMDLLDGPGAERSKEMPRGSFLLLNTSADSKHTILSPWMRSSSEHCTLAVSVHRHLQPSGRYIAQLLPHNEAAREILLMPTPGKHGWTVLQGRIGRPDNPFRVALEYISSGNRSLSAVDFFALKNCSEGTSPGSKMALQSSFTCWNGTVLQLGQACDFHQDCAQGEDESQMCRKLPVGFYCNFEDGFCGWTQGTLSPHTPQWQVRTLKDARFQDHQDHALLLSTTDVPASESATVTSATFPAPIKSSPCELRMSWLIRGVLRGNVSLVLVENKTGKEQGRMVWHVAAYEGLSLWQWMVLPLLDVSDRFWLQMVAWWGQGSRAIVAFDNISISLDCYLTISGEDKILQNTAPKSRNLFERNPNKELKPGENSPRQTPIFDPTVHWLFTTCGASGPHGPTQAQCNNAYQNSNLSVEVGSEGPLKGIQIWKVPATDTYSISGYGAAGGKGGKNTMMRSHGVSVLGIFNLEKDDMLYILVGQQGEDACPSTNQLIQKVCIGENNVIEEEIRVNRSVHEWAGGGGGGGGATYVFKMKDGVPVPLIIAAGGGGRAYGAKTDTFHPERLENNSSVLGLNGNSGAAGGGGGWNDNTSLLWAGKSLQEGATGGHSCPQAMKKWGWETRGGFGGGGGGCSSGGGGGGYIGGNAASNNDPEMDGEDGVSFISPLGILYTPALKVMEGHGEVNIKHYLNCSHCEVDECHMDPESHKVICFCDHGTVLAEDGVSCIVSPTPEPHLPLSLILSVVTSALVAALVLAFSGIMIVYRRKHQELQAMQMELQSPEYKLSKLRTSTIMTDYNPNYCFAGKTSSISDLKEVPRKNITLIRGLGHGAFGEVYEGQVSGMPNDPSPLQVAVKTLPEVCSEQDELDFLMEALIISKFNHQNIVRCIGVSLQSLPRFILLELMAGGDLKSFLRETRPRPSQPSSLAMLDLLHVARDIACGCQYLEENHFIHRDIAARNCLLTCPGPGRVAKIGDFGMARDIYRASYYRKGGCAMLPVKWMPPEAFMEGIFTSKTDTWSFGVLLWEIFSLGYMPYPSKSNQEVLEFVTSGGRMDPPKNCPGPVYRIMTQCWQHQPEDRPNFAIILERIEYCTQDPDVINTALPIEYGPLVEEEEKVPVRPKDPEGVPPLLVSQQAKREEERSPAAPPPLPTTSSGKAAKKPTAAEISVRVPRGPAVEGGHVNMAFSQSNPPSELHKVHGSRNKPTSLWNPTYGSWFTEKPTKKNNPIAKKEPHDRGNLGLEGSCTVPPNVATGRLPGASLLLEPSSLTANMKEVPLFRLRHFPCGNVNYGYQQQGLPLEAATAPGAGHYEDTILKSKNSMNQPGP
T2 sequence (O60674 whole entry): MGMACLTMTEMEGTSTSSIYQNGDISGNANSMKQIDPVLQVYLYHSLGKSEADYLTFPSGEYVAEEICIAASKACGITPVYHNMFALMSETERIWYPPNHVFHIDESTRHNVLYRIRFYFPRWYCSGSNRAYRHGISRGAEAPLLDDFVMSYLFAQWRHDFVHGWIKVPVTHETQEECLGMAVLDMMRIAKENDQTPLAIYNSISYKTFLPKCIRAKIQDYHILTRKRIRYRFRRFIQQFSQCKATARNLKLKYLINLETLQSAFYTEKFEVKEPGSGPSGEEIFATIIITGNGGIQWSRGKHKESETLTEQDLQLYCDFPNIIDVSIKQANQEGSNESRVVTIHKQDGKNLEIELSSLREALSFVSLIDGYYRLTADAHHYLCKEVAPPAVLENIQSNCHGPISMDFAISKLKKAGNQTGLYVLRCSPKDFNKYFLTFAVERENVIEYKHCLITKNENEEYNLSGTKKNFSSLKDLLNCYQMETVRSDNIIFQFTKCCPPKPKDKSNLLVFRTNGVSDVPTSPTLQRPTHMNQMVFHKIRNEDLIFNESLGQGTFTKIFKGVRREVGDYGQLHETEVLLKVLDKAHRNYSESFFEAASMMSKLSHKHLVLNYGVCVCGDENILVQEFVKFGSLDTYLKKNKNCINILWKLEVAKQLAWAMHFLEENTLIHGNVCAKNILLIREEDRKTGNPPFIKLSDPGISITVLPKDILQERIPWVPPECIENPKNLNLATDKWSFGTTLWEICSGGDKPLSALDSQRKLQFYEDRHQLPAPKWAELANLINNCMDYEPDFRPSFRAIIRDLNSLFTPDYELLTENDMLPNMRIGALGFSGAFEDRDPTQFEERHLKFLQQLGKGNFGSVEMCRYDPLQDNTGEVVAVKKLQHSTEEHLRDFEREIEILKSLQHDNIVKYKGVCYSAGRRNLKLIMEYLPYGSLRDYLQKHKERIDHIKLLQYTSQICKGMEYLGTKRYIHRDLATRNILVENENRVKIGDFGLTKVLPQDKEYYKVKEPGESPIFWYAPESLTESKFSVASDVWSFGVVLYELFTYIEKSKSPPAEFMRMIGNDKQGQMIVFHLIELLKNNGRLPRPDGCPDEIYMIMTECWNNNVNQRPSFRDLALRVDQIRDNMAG

SMILES	IC50 (ALK; [1]) [nM]	IC50 (JAK2; [2]) [nM]	IC50 (ALK; ALK Kinase Inhibition) [nM]	IC50 (JAK2; JAK2 Kinase Inhibition) [nM]
CN(c1ccccc1-c1ccc2cnc(Nc3ccc4cn(CCN5CCOCC5)nc4c3)nn12)S(C)(=O)=O [Example 1342, N-Methyl-N-(2-{2-[2-(2-morpholin-4-yl-ethyl)-2H-indazol-6-ylamino]-pyrrolo[2,1-f][1,2,4]triazin-7-yl}-phenyl)-methanesulfonamide]	100 to 1000	< 100		
CN(c1ccccc1-c1ccc2cnc(Nc3ccc4nn(CCN5CCOCC5)cc4c3)nn12)S(C)(=O)=O [Example 1343, N-Methyl-N-(2-{2-[2-(2-morpholin-4-yl-ethyl)-2H-indazol-5-ylamino]-pyrrolo[2,1-f][1,2,4]triazin-7-yl}-phenyl)-methanesulfonamide]	< 100	< 100		
CC(C)(C)NS(=O)(=O)c1cccc(-c2ccc3cnc(Nc4ccc5cn(CCN6CCOCC6)nc5c4)nn23)c1 [Example 1344, N-tert-Butyl-3-{2-[2-(2-morpholin-4-yl-ethyl)-2H-indazol-6-ylamino]-pyrrolo[2,1-f][1,2,4]triazin-7-yl}-benzenesulfonamide]	100 to 1000	< 100		
CC(C)(C)NS(=O)(=O)c1cccc(-c2ccc3cnc(Nc4ccc5nn(CCN6CCOCC6)cc5c4)nn23)c1 [Example 1345, N-tert-Butyl-3-{2-[2-(2-morpholin-4-yl-ethyl)-2H-indazol-5-ylamino]-pyrrolo[2,1-f][1,2,4]triazin-7-yl}-benzenesulfonamide]	100 to 1000	< 100		
COc1ccccc1-c1ccc2cnc(Nc3ccc4c(cnn4CCN4CCOCC4)c3)nn12 [Example 1346, [7-(2-Methoxy-phenyl)-pyrrolo[2,1-f][1,2,4]triazin-2-yl]-[1-(2-morpholin-4-yl-ethyl)-1H-indazol-5-yl]-amine]	100 to 1000	< 100		
COc1ccccc1-c1ccc2cnc(Nc3ccc4cnn(CCN5CCOCC5)c4c3)nn12 [Example 1347, [7-(2-Methoxy-phenyl)-pyrrolo[2,1-f][1,2,4]triazin-2-yl]-[1-(2-morpholin-4-yl-ethyl)-1H-indazol-6-yl]-amine]	1000 to 10000	< 100		
COc1ccccc1-c1ccc2cnc(Nc3ccc4c(c3)ncn4CCN3CCOCC3)nn12 [Example 1348, [7-(2-Methoxy-phenyl)-pyrrolo[2,1-f][1,2,4]triazin-2-yl]-[1-(2-morpholin-4-yl-ethyl)-1H-benzimidazol-5-yl]-amine]	100 to 1000	< 100		
COc1ccccc1-c1ccc2cnc(Nc3ccc4ncn(CCN5CCOCC5)c4c3)nn12 [Example 1349, [7-(2-Methoxy-phenyl)-pyrrolo[2,1-f][1,2,4]triazin-2-yl]-[3-(2-morpholin-4-yl-ethyl)-3H-benzimidazol-5-yl]-amine]	100 to 1000	< 100		
COc1ccccc1-c1ccc2cnc(Nc3ccc4cn(CCN5CCOCC5)nc4c3)nn12 [Example 1350, [7-(2-Methoxy-phenyl)-pyrrolo[2,1-f][1,2,4]triazin-2-yl]-[2-(2-morpholin-4-yl-ethyl)-2H-indazol-6-yl]-amine]	1000 to 10000	< 100		
COc1ccccc1-c1ccc2cnc(Nc3ccc4nn(CCN5CCOCC5)cc4c3)nn12 [Example 1351, [7-(2-Methoxy-phenyl)-pyrrolo[2,1-f][1,2,4]triazin-2-yl]-[2-(2-morpholin-4-yl-ethyl)-2H-indazol-5-yl]-amine]	100 to 1000	< 100		
COc1ccccc1-c1ccc2cnc(Nc3ccc4nc(C(C)(C)C)[nH]c4c3)nn12 [Example 1352, (2-tert-Butyl-3H-benzimidazol-5-yl)-[7-(2-methoxy-phenyl)-pyrrolo[2,1-f][1,2,4]triazin-2-yl]-amine]	100 to 1000	< 100		
COc1cccc(F)c1-c1ccc2cnc(Nc3ccc(C4CCN(CC(N)=O)CC4)cc3)nn12 [Example 1353, 2-(4-{4-[7-(2-Fluoro-6-methoxy-phenyl)-pyrrolo[2,1-f][1,2,4]triazin-2-ylamino]-phenyl}-piperidin-1-yl)-acetamide]	< 100	< 100		
CN(c1ccccc1-c1ccc2cnc(Nc3cccnc3)nn12)S(C)(=O)=O [Example 1361, N-Methyl-N-{2-[2-(pyridin-3-ylamino)-pyrrolo[2,1-f][1,2,4]triazin-7-yl]-phenyl}-methanesulfonamide]	1000 to 10000	< 100		
CN(c1ccccc1-c1ccc2cnc(Nc3nccs3)nn12)S(C)(=O)=O [Example 1362, N-Methyl-N-{2-[2-(thiazol-2-ylamino)-pyrrolo[2,1-f][1,2,4]triazin-7-yl]-phenyl}-methanesulfonamide]	1000 to 10000	100 to 1000		
CC(=O)Nc1cccc(Nc2ncc3ccc(-c4cccc(NS(C)(=O)=O)c4)n3n2)c1 [Example 1363, N-{3-[7-(3-Methanesulfonylamino-phenyl)-pyrrolo[2,1-f][1,2,4]triazin-2-ylamino]-phenyl}-acetamide]	1000 to 10000	< 100		
CN(c1ccccc1-c1ccc2cnc(Nc3ccncc3)nn12)S(C)(=O)=O [Example 1364, N-Methyl-N-{2-[2-(pyridin-4-ylamino)-pyrrolo[2,1-f][1,2,4]triazin-7-yl]-phenyl}-methanesulfonamide]	1000 to 10000	< 100		
CC(=O)N1CCCC(C)(C)c2ccc(Nc3ncc4ccc(-c5cccc(NS(C)(=O)=O)c5)n4n3)cc21 [Example 1365, N-{3-[2-(1-Acetyl-5,5-dimethyl-2,3,4,5-tetrahydro-1H-benzo[b]azepin-8-ylamino)-pyrrolo[2,1-f][1,2,4]triazin-7-yl]-phenyl}-methanesulfonamide]	1000 to 10000	< 100		
CC(=O)N1CCCC(C)(C)c2ccc(Nc3ncc4ccc(-c5ccccc5N(C)S(C)(=O)=O)n4n3)cc21 [Example 1366, N-{2-[2-(1-Acetyl-5,5-dimethyl-2,3,4,5-tetrahydro-1H-benzo[b]azepin-8-ylamino)-pyrrolo[2,1-f][1,2,4]triazin-7-yl]-phenyl}-N-methyl-methanesulfonamide]			100 to 1000	< 100
CC(=O)N1CCc2ccc(Nc3ncc4ccc(-c5cccc(NS(C)(=O)=O)c5)n4n3)cc21 [Example 1367, N-{3-[2-(1-Acetyl-2,3-dihydro-1H-indol-6-ylamino)-pyrrolo[2,1-f][1,2,4]triazin-7-yl]-phenyl}-methanesulfonamide]			1000 to 10000	< 100
CC(=O)Nc1cccc(Nc2ncc3ccc(-c4cccc(S(=O)(=O)NC(C)(C)C)c4)n3n2)c1 [Example 1368, N-{3-[7-(3-tert-Butylsulfamoyl-phenyl)-pyrrolo[2,1-f][1,2,4]triazin-2-ylamino]-phenyl}-acetamide]			100 to 1000	< 100
CC(=O)N1CCCC(C)(C)c2ccc(Nc3ncc4ccc(-c5cccc(S(=O)(=O)NC(C)(C)C)c5)n4n3)cc21 [Example 1369, 3-[2-(1-Acetyl-5,5-dimethyl-2,3,4,5-tetrahydro-1H-benzo[b]azepin-8-ylamino)-pyrrolo[2,1-f][1,2,4]triazin-7-yl]-N-tert-butyl-benzenesulfonamide]			1000 to 10000	< 100
COc1ccc(Nc2ncc3ccc(-c4ccccc4N(C)S(C)(=O)=O)n3n2)cc1N1CCCC1=O [Example 1370, N-(2-{2-[4-Methoxy-3-(2-oxo-pyrrolidin-1-yl)-phenylamino]-pyrrolo[2,1-f][1,2,4]triazin-7-yl}-phenyl)-N-methyl-methanesulfonamide]			100 to 1000	< 100
